Among the data in patent publication US4820834A, “Benzodiazepine analogs” (priority 1987, dated 1989) are IC50 values, retold here.

In experiment [1] the target is T1, CCK receptor (brain, cerebral cortex) (Cavia porcellus, UniProt H0VZC5).
T1 construct: Cerebral cortex was dissected and used as a receptor source; from tissue; host or cells: guinea pig cerebral cortex membranes (male Hartley)
T1 sequence (H0VZC5 1-426): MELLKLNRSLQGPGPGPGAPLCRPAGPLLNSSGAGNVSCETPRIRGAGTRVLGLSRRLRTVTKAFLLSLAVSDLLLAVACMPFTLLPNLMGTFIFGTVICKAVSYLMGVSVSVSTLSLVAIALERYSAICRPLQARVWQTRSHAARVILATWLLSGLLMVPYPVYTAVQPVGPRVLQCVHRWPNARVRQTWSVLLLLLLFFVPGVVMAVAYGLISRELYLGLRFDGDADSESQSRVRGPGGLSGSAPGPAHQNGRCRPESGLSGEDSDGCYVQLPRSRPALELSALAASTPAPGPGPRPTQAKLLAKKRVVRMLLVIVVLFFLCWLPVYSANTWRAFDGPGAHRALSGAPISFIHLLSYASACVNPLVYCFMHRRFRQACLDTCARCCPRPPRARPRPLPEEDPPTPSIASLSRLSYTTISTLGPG
Kind of experiment: biochemical. Type of experiment: binding, Male Hartley guinea pigs. The settings on record: guinea pig cerebral cortex, ^125 I-CCK-33, 25° C., 2 hours. As to the method:
2. CCK Recepto Binding (Brain)
CCK-33 was radiolabeled and the binding was Performed according to the description for the Pancreas method with modifications according to Saito et al., J. Neurochem.
Cerebral cortex was dissected and used as a receptor source. Each gram of fresh guinea pig brain tissue was homogenized in 10 ml of Tris/Trizma buffer with a Brinkman polytron PT-10. The homogenates were centrifuged at 42,000 g for 15 minutes. Pellets were resuspended in Tris Buffer, centrifuged as above and resuspended in 200 volumes of binding assay buffer (10 mM N-2-hydroxyethyl-piperazine-N'-2-ethane sulfonic acid (HEPES), 5 mM MgCl2, 0.25 mg/ml bacitracin, 1 mM ethylene glycol-bis-(β-aminoethylether-N,N'-tetraacetic acid) (EGTA), and 0.4% bovine serum albumin (BSA)). […] All assays were run in duplicate or triplicate. The reaction mixtures were incubated at 25° C. for 2 hours and centrifuged in a Beckman Microfuge (4 minutes) immediately after adding 1 ml of ice-cold incubation buffer. The supernatant was aspirated and discarded, pellets were counted with a Beckman gamma 5000.

Experiment [2] addresses T2, Gastrin receptor (gastric glands) (Cavia porcellus, UniProt H0VZC5).
T2 construct: The washed guinea pig gastric glands prepared as above were resuspended; from tissue; host or cells: guinea pig gastric mucosal glands (male Hartley)
T2 sequence (H0VZC5 1-426): T1 sequence (H0VZC5 1-426)
In words: Gastrin Receptor Binding in Guinea Pig Gastric Glands. Further details: species or system guinea pig (male Hartley). The following applies: 25° C., 30 minutes.

Setting [3] is: IC50 ^125 I-Gastrin Gastric Glands.
Where [4] appears, read: read-out: IC50 ^125 I-CCK Brain.
Where [5] appears, read: ^125 I-gastrin, read-out: IC50 ^125 I-Gastrin Gastric Glands.

Where two headings read alike, the source gives them in different places.

One may read the IC50 as the concentration needed to halve the response being measured. In the case of `O=C(NC1N=C(c2ccccc2)c2ccccc2NC1=O)c1ccc(Cl)c(Cl)c1` (racemic) [Example 141, 3-(RS)-(3,4-Dichlorobenzoylamino)-1,3-dihydro-5-phenyl-2H-1,4-benzodiazepin-2-one], the IC50 in experiment [1] (IC50 ^125 I-CCK Brain) was > 40 µM; in experiment [2] (setting [3]), 25 µM.

Regarding `CN1C(=O)C(NC(=O)c2ccc(Cl)cc2)[N+]([O-])=C(c2ccccc2F)c2ccccc21` (racemic) [Example 142, 3-(RS)-(p-Chlorobenzoylamino)-1,3-dihydro-5-(2'-fluorophenyl)-1-methyl-4-oxo-2H-1,4-benzodiazepin-2-one], the IC50 is 18 µM in experiment [1] (IC50 ^125 I-CCK Brain) and 2.4 µM in experiment [2] (setting [3]).

On to `CSc1ccc(C(=O)NC2N=C(c3ccccc3)c3ccccc3NC2=O)cc1` (racemic) [Example 143, 1,3-Dihydro-5-Phenyl-3-(RS)-(4'-methylthiobenzoylamino)-2H-1,4-benzodiazepin-2-one], for which the IC50 in experiment [1] (IC50 ^125 I-CCK Brain) is 23 µM; in experiment [2] (setting [3]), 8 µM.

Take `O=C(NC1N=C(c2ccccc2)c2ccccc2NC1=O)c1ccc(F)cc1` (racemic) [Example 144, 1-3-Dihydro-3-(RS)-(4'-fluorobenzoylamino)-5-phenyl-2H-1,4-benzodiazeoin-2-one]: the figures for the 50% inhibitory concentration (IC50) in experiment [1] (IC50 ^125 I-CCK Brain) and in experiment [2] (setting [3]) were 43 µM and 9.4 µM, respectively.

On to `O=C(NC1N=C(c2ccccc2)c2ccccc2NC1=O)c1ccc(C(F)(F)F)cc1` (racemic) [Example 145, 1,3-Dihydro-5-Phenyl-3-(RS)-(4'-trifluoromethylbenzoylamino)-2H-1,4-benzodiazepin-2-one], for which the 50% inhibitory concentration (IC50) in experiment [1] (IC50 ^125 I-CCK Brain) came to 65 µM; in experiment [2] (setting [3]), 36 µM.

With `CC(C)(C)c1ccc(C(=O)NC2N=C(c3ccccc3)c3ccccc3NC2=O)cc1` (racemic) [Example 146, 1,3-Dihydro-3-(RS)-(4'-tert-butylbenzoylamino)-5-phenyl-2H-1,4-benzodiazepin-2-one], the IC50 was found to be 100 µM in experiment [1] (IC50 ^125 I-CCK Brain) and 40 µM in experiment [2] (setting [3]).

`O=C(NC1N=C(c2ccccc2)c2ccccc2NC1=O)c1cc(Cl)cc(Cl)c1` (racemic) [Example 147, 3-(RS)-(3,5-Dichlorobenzoylamino)1,3-dihydro-5-phenyl-2H-1,4-benzodiazepin-2-one]: the IC50 in experiment [1] (IC50 ^125 I-CCK Brain) is > 100 µM; in experiment [2] (setting [3]), 180 µM.

As to `O=C(NC1N=C(c2ccccc2)c2ccccc2NC1=O)c1ccc(O)cc1` (racemic) [Example 148, 1-3-Dihydro-3-(RS)-(p-Hydroxybenzoylamino)-5-phenyl-2H-1,4-benzodiazepin-2-one], the IC50 turned out to be 100 µM in experiment [1] (IC50 ^125 I-CCK Brain) and 31 µM in experiment [2] (setting [3]).

Take `CN(C)c1ccc(C(=O)NC2N=C(c3ccccc3F)c3ccccc3NC2=O)cc1` (racemic) [Example 152, 1,3-Dihydro-3(RS)-(p-dimethylaminobenzoylamino)-5-(2-fluorophenyl)-2H-1,4-benzodiazepin-2-one]: the IC50 in experiment [1] (IC50 ^125 I-CCK Brain) and in experiment [2] (setting [3]) was > 100 µM throughout.

For `COc1ccc(C(=O)NC2N=C(c3ccccc3F)c3ccccc3NC2=O)cc1OC` (racemic) [Example 153, 1,3-Dihydro-3(RS)-(3,4-dimethoxybenzoylamino)-5-(2-fluorophenyl)-2H-1,4-benzodiazepin-2-one], the IC50 in experiment [1] (IC50 ^125 I-CCK Brain) and in experiment [2] (setting [3]) was > 40 µM throughout.

In the case of `O=C(NC1N=C(c2ccccc2)c2ccccc2NC1=O)c1cccc(SC(F)(F)F)c1` (racemic) [Example 155, 1,3-Dihydro-5-phenyl-3(RS)-(3-trifluoromethylthiobenzoylamino)-2H-1,4-benzodiazepin-2-one], the IC50 in experiment [1] (IC50 ^125 I-CCK Brain) is > 100 µM; in experiment [2] (setting [3]), 128 µM.

Consider `O=C(NC1N=C(c2ccccc2F)c2ccccc2NC1=O)c1ccc[nH]1` (racemic) [Example 158, 1,3-Dihydro-5-(2-fluorophenyl)-3(RS)-(pyrrole-2-carbonylamino)-2H-1,4-benzodiazepin-2-one], for which the concentration for half-maximal inhibition (IC50) in experiment [1] (IC50 ^125 I-CCK Brain) was 100 µM; in experiment [2] (setting [3]), 25 µM.

As to `O=C(NC1N=C(c2ccccc2)c2ccccc2NC1=O)c1ccc2ccccc2c1` (racemic) [Example 160, 1,3-Dihydro-3(RS)-(2-naphthoylamino)-5-phenyl-2H-1,4-benzodiazepin-2-one], the values for the IC50 in experiment [1] (IC50 ^125 I-CCK Brain) and in experiment [2] (setting [3]) were 12 µM and 14 µM, respectively.

In the case of `CCCc1ccc(C(=O)NC2N=C(c3ccccc3)c3ccccc3NC2=O)cc1` (racemic) [Example 163, 1,3-Dihydro-5-phenyl-3(RS)-(4-α-propylbenzoylamino)-2H-1,4-benzodiazepin-2-one], the IC50 turned out to be 12 µM in experiment [1] (IC50 ^125 I-CCK Brain) and 80 µM in experiment [2] (setting [3]).

In the case of `O=C(NC1N=C(c2ccccc2)c2ccccc2NC1=O)c1ccc(-c2ccccc2)cc1` (racemic) [Example 164, 1,3-Dihydro-5-phenyl-3(RS)-(4-phenylbenzoylamino)-2H-1,4-benzodiazepin-2-one], the IC50 in experiment [1] (IC50 ^125 I-CCK Brain) was 18 µM; in experiment [2] (setting [3]) it was > 100 µM.

`CCCCCc1ccc(C(=O)NC2N=C(c3ccccc3)c3ccccc3NC2=O)cc1` (racemic) [Example 165, 1,3-Dihydro-3(RS)-(4-n-pentylbenzoylamino)-5-phenyl-2H-1,4-benzodiazepin-2-one]: the IC50 is 8 µM in experiment [1] (IC50 ^125 I-CCK Brain) and > 100 µM in experiment [2] (setting [3]).

For the compound `O=C(NC1N=C(c2ccccc2)c2ccccc2NC1=O)c1cccc2ccccc12` (racemic) [Example 166, 1,3-Dihydro-3(RS)-(1-naphthoylamino)-5-phenyl-2H-1,4-benzodiazepin-2-one], the IC50 in experiment [1] (IC50 ^125 I-CCK Brain) was determined as 12 µM; in experiment [2] (setting [3]), 29 µM.

Regarding `O=C(NC1N=C(c2ccccc2F)c2ccccc2NC1=O)c1ccccc1` (racemic) [Example 173, 1,3-Dihydro-5-(2-fluorophenyl)-3(RS)-phenylcarbonylamino-2H-1,4-benzodiazepin-2-one], the IC50 is > 40 µM in experiment [1] (IC50 ^125 I-CCK Brain) and 28 µM in experiment [2] (setting [3]).

As for `O=C(NC1N=C(c2ccccc2F)c2ccccc2NC1=O)c1ccccc1Cl` (racemic) [Example 174, 1,3-Dihydro-5-(2-fluorophenyl)-3(RS)-(2-chlorophenyl)carbonylamino-2H-1,4-benzodiazepin-2-one], the IC50 was > 40 µM in experiment [1] (IC50 ^125 I-CCK Brain) and 18 µM in experiment [2] (setting [3]).

As to `O=C(NC1N=C(c2ccccc2F)c2ccccc2N(C(=O)c2ccc(Cl)cc2)C1=O)c1ccc(Cl)cc1` (racemic) [Example 177, 1-(4-Chlorophenyl)carbonyl-1,3-dihydro-5-(2-fluorophenyl)-3(RS)-(4-chlorophenyl)carbonylamino-2H-1,4-benzodiazepin-2-one], the IC50 in experiment [1] (IC50 ^125 I-CCK Brain) was found to be 3.7 µM; in experiment [2] (setting [3]), 0.55 µM.

On to `O=C(Nc1ccc(Cl)cc1)NC1N=C(c2ccccc2F)c2ccccc2NC1=O` (racemic) [Example 182, 1,3-Dihydro-3(RS)-(4-chlorophenyl)aminocarbonylamino-5-(2-fluorophenyl)-2H-1,4-benzodiazepin-2-one], for which the IC50 in experiment [1] (IC50 ^125 I-CCK Brain) was 0.3 µM; in experiment [2] (setting [3]), 0.26 µM.

Take `N[C@@H](Cc1ccccc1)C(=O)NC1N=C(c2ccccc2)c2ccccc2NC1=O` (single isomer, unassigned) [Example 186]: the IC50 in experiment [1] (setting [4]) and in experiment [2] (setting [5]) was > 100 µM throughout.

With `CCN(CC)C(=O)C(C)N1C(=O)C(NC(=O)Nc2ccc(Cl)cc2)N=C(c2ccccc2)c2ccccc21` (single isomer, unassigned) [Example 249, 3-((((4-Chlorophenyl)amino)carbonyl)amino)-N,N,-diethyl-2,3-dihydro-alpha-methyl-2-oxo-5-phenyl-1H-1,4-benzodiazepine-1-acetamide], the IC50 in experiment [1] (setting [4]) was 0.022 µM; in experiment [2] (setting [5]) it was 0.012 µM.

Consider `CN1C(=O)[C@@H](NC(=O)[C@@H](N)Cc2ccccc2)N=C(c2ccccc2)c2ccccc21` [Example 84a, 3(S)-(2(S)-amino-3-phenylpropanoylamino)-1,3-dihydro-1-methyl-5-phenyl-2H-1,4-benzodiazepin-2-one], for which the IC50 in experiment [1] (IC50 ^125 I-CCK Brain) and in experiment [2] (setting [5]) was > 40 µM each time.

For `CN1C(=O)[C@H](NC(=O)[C@@H](N)Cc2ccccc2)N=C(c2ccccc2)c2ccccc21` [Example 84b, 3(R)-(2(S)-amino-3-phenylpropanoylamino)-1,3-dihydro-1-methyl-5-phenyl-2H-1,4-benzodiazepin-2-one], the IC50 was > 100 µM in experiment [1] (IC50 ^125 I-CCK Brain) and 55 µM in experiment [2] (setting [5]).

Consider `CN1C(=O)[C@H](N)N=C(c2ccccc2)c2ccccc21` [Example 85b, 3(R)-(+)-3-amino-1,3-dihydro-1-methyl-5-phenyl-2H-1,4-benzodiazepin-2-one], for which the concentration for half-maximal inhibition (IC50) in experiment [1] (IC50 ^125 I-CCK Brain) and in experiment [2] (setting [3]) was > 100 µM throughout.
